Strand notation (5' to 3'): a small letter for the sugar, then the base; units joined by * are phosphorothioate-linked, units joined directly phosphodiester-linked; [ ] holds rarer units or linkages, { } end groups; capitals alone tell only the bases. e = 2'-O-(2-methoxyethyl) (MOE); [5mC] = 5-methylcytosine; d = 2'-deoxy (DNA)
Columns and labels:
[1] = test system: human RNase H2; assay: Antisense inhibition of human RNase H2 expression, Northern blot; type: cell-based; parameters: % of control / % inhibition: concentration or dose not given beside the values; conditions: for % inhibition / % of control: RNase H2 expression, Northern blot; for inhibition of human RNase H2 expression: summary of Table 3; for reduction of expression: dose response, A549 cells
Method: Total RNA was isolated from different human cell lines (ATCC, Rockville, Md.) using the guanidine isothiocyanate method (21). Ten μg of total RNA was separated on a 1.2% agarose/formaldehyde gel and transferred to Hybond-N+ (Amersham, Arlington Heights, Ill.) followed by fixing using UV crosslinker (Strategene, La Jolla, Calif.). The premade multiple tissue Northern Blot membranes were also purchased from Clontech (Palo Alto, Calif.). To detect RNase H2 mRNA, hybridization was performed by using ^32P-labeled human RNase H II cDNA in Quik-Hyb buffer (Strategene, La Jolla, Calif.) at 68 EC for 2 hours. After hybridization, membranes were washed in a final stringency of 0.1×SSC/0.1% SDS at 60 EC for 30 minutes and subjected to auto-radiography.
A series of antisense oligonucleotides were targeted to the human RNase H2 polynucleotide sequence (SEQ ID NO: 11). These compounds were all 2′-O-methoxyethyl “gapmers” with an 8-nucleotide deoxy gap and a phosphorothioate backbone. Cytosine residues are 5-methyl cytosines. The 2′-O-methoxyethyl (2′MOE) nucleotides are shown in bold.
The oligonucleotides shown in Table 2 were tested by Northern blot analysis for their ability to inhibit expression of human RNase H2. Results are expressed in Table 3.

[2] = test system: human RNase H2; assay: Screen of antisense compounds (gapped oligonucleotides, siRNA) in cells against human RNase H2; type: cell-based; parameters: concentration or dose not given beside the values; conditions: percent inhibition of RNase H enzyme levels; target H2
Method: Oligonucleotides were identified by screening in cells (Crooke, S. T., 2003, in Burger's Medicinal Chemistry, 6th ed., pp 115-166; Vickers et al., 2003, J. Biol. Chem. 278, 7108-7118).
For this experiment oligoribonucleotides were purchased from Dharmacon Research, Inc. (Boulder Colo.). siRNA duplexes were formed in the solution containing 20 μM each oligoribonucleotide (sense strand shown and antisense strand complement—generally with a one base overhang at each end), 100 mM potassium acetate, 30 mM HEPES-KOH pH 7.4, 2 mM magnesium acetates. Reactions were heated for 1 minute at 90° C. and incubated for 1 hour at 37° C. The control gapped antisense oligonucleotide, is ISIS 29848, […] (SEQ ID NO: 104), where N is a mixture of A, G, C and T. Bold residues are 2′-MOE residues. The siRNA controls are either the single strand sense RNA strand or other RNA duplexes that are not complementary to the target. For transfection of cells, cells were incubated with a mixture of 3 μg/ml lipofectin (Invitrogen, Carlsbad Calif.) per 1-200 nM oligonucleotide or siRNA in OptiMEM medium (Invitrogen). After 4 hours the transfection mixture was aspirated from the cells and replaced with fresh medium containing 10% fetal bovine serum and the cells were incubated at 37° C. in 5% CO2 until harvest or second transfection.

| Sequence | % inhibition [1] | % of control [1] | inhibition of human RNase H2 expression [1] | % Inhib [2] | reduction of expression ([1]; 200 nM) | reduction of expression ([1]; lowest dose tested 50 nM) |
| --- | --- | --- | --- | --- | --- | --- |
| CGCCTCAGCCGCCACCACCA (all C 5-methyl, all phosphorothioate, sugars by position not given here; further chemistry not fully specified) [ISIS 21946, 2′-O-methoxyethyl gapmer, 8-nucleotide deoxy gap, phosphorothioate backbone, targeted to human RNase H2] | 50% | 50% | at least 50% | – | – | – |
| CACAGGCGAACTCAGGCGAC (all C 5-methyl, all phosphorothioate, sugars by position not given here; further chemistry not fully specified) [ISIS 21947, 2′-O-methoxyethyl gapmer, 8-nucleotide deoxy gap, phosphorothioate backbone, targeted to human RNase H2] | 63% | 37% | at least 50% | – | – | – |
| GGUCCAGCUACUUCCUUUUGG [Si 21962] | – | – | – | 0% | – | – |
| CCTACGTGTGGTTCTCCTTA (antisense e[5mC]*e[5mC]*eT*eA*e[5mC]*eG*dT*dG*dT*dG*dG*dT*dT*d[5mC]*eT*e[5mC]*e[5mC]*eT*eT*eA) [ISIS 21960, 2′-O-methoxyethyl gapmer, 8-nucleotide deoxy gap, phosphorothioate backbone, targeted to human RNase H2] | 92% | 8% | at least 50% | 91.7% | > 80% | 60% |
| CCAGUUUGUCCGGUUCAGCUG [Si 21957] | – | – | – | 42.4% | – | – |
| CGGTGTCCACGAATACCTGG (all C 5-methyl, all phosphorothioate, sugars by position not given here; further chemistry not fully specified) [ISIS 21951, 2′-O-methoxyethyl gapmer, 8-nucleotide deoxy gap, phosphorothioate backbone, targeted to human RNase H2] | 74% | 26% | at least 50% | – | – | – |
| CCCAGCCGACAAAGTCCGTG (all C 5-methyl, all phosphorothioate, sugars by position not given here; further chemistry not fully specified) [ISIS 21950, 2′-O-methoxyethyl gapmer, 8-nucleotide deoxy gap, phosphorothioate backbone, targeted to human RNase H2] | 68% | 32% | at least 50% | – | – | – |
| CCTCTTTCTCCAGGATGGTC (antisense e[5mC]*e[5mC]*eT*e[5mC]*eT*eT*dT*d[5mC]*dT*d[5mC]*d[5mC]*dA*dG*dG*eA*eT*eG*eG*eT*e[5mC]) [ISIS 21958, 2′-O-methoxyethyl gapmer, 8-nucleotide deoxy gap, phosphorothioate backbone, targeted to human RNase H2] | 38% | 62% | – | 38.0% | – | – |
| CGCGCCTGGTATGTCTCTGG (all C 5-methyl, all phosphorothioate, sugars by position not given here; further chemistry not fully specified) [ISIS 21952, 2′-O-methoxyethyl gapmer, 8-nucleotide deoxy gap, phosphorothioate backbone, targeted to human RNase H2] | 89% | 11% | at least 50% | – | approximately 70% | 60% |
| CCACCTTGGCACAGATGCTG (all C 5-methyl, all phosphorothioate, sugars by position not given here; further chemistry not fully specified) [ISIS 21954, 2′-O-methoxyethyl gapmer, 8-nucleotide deoxy gap, phosphorothioate backbone, targeted to human RNase H2] | 77% | 23% | at least 50% | – | – | – |
| TTTTGTCTTGGGATCATTGG (eT*eT*eT*eT*eG*eT*d[5mC]*dT*dT*dG*dG*dG*dA*dT*e[5mC]*eA*eT*eT*eG*eG) [ISIS 21956] | 63% | 37% | at least 50% | 63.1% | – | – |
| CAAAAGGAAGTAGCTGGACC (antisense e[5mC]*eA*eA*eA*eA*eG*dG*dA*dA*dG*dT*dA*dG*d[5mC]*eT*eG*eG*eA*e[5mC]*e[5mC]) [ISIS 21962, 2′-O-methoxyethyl gapmer, 8-nucleotide deoxy gap, phosphorothioate backbone, targeted to human RNase H2] | 37% | 63% | – | 36.0% | – | – |
| CAGTTTCTCCACGAATTGCC (antisense e[5mC]*eA*eG*eT*eT*eT*d[5mC]*dT*d[5mC]*d[5mC]*dA*d[5mC]*dG*dA*eA*eT*eT*eG*e[5mC]*e[5mC]) [ISIS 21955, 2′-O-methoxyethyl gapmer, 8-nucleotide deoxy gap, phosphorothioate backbone, targeted to human RNase H2] | 33% | 67% | – | 33.3% | – | – |
| UAAGGAGAACCACACGUAGGG [Si 21960] | – | – | – | 9.9% | – | – |
| GGCAAUUCGUGGAGAAACUGC [Si 21955] | – | – | – | 19.2% | – | – |
| GGACAATAACAGATGGCGTA (eG*eG*eA*e[5mC]*eA*eA*dT*dA*dA*d[5mC]*dA*dG*dA*dT*eG*eG*e[5mC]*eG*eT*eA) [ISIS 21948] | 62% | 38% | at least 50% | – | – | – |
| AGCTGAACCGGACAAACTGG (antisense eA*eG*e[5mC]*eT*eG*eA*dA*d[5mC]*d[5mC]*dG*dG*dA*d[5mC]*dA*eA*eA*e[5mC]*eT*eG*eG) [ISIS 21957, 2′-O-methoxyethyl gapmer, 8-nucleotide deoxy gap, phosphorothioate backbone, targeted to human RNase H2] | 68% | 32% | at least 50% | 68.1% | – | – |
| ACTCCAGGCCGCGTTCCAGG (antisense eA*e[5mC]*eT*e[5mC]*e[5mC]*eA*dG*dG*d[5mC]*d[5mC]*dG*d[5mC]*dG*dT*eT*e[5mC]*e[5mC]*eA*eG*eG) [ISIS 21959, 2′-O-methoxyethyl gapmer, 8-nucleotide deoxy gap, phosphorothioate backbone, targeted to human RNase H2] | 82% | 18% | at least 50% | 81.2% | – | – |
| GCACACTCCCACCTTGCTTC (chemistry not fully specified) [ISIS 21961, 2′-O-methoxyethyl gapmer, 8-nucleotide deoxy gap, phosphorothioate backbone, targeted to human RNase H2] | 7% | 93% | – | 6.1% | – | – |
| GACCAUCCUGGAGAAAGAGGC [Si 21958] | – | – | – | 45.8% | – | – |
| CCUGGAACGCGGCCUGGAGUC [Si 21959] | – | – | – | 53.8% | – | – |
| GAAGCAAGGUGGGAGUGUGCU [Si 21961] | – | – | – | 15.2% | – | – |
| CCCGCTCGCTCTCCAATAGG (all C 5-methyl, all phosphorothioate, sugars by position not given here; further chemistry not fully specified) [ISIS 21949, 2′-O-methoxyethyl gapmer, 8-nucleotide deoxy gap, phosphorothioate backbone, targeted to human RNase H2] | 82% | 18% | at least 50% | – | – | – |
| GGTAGAGGGCATCTGCTTTG (eG*eG*eT*eA*eG*eA*dG*dG*dG*d[5mC]*dA*dT*d[5mC]*dT*eG*e[5mC]*eT*eT*eT*eG) [ISIS 21953] | 59% | 41% | at least 50% | – | – | – |

— patent US20050164234A1, “Methods of using mammalian RNase H and compositions thereof” (priority 1997, published 2005)
